# Assay results: paper PMC11617253, “Gene expansion in the hawkmoth Manduca sexta drives evolution of food-associated odorant receptors” (iScience, 2024)
# Tests used:
# Assay in all cases: single sensillum recording, Drosophila empty neuron (ab3A)
# Assay type in all cases: cell-based
# MsexOR33 = target: T1, MsexOR33 (Manduca sexta, UniProt A0A0P1J430); details: odor dilutions 10^-7 to 10^-2 v/v on filter paper, 500 ms pulse
# T1 construct: gene OR-33; full-length CDS from antennal RNA, UAS transgene (pUASTattB) in D. melanogaster ab3A empty neuron (delta-halo; DmelOr22a-Gal4); partner is endogenous fly Orco; with Odorant receptor coreceptor (Drosophila melanogaster, endogenous to the ab3A neuron)
# T1 sequence (A0A0P1J430 entry or part of it, one chain of several): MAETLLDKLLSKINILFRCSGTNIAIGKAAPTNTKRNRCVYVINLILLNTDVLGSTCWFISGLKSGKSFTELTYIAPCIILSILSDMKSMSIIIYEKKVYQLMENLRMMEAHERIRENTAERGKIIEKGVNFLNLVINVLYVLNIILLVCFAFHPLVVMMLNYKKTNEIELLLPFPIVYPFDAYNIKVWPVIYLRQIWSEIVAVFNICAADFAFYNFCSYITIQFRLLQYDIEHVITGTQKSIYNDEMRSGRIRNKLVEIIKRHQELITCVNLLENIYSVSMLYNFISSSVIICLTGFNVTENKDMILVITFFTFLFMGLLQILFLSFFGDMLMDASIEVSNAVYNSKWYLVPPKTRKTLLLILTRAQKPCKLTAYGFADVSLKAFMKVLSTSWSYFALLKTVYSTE
# MsexOR8 = target: T2, MsexOR8 (Manduca sexta, UniProt A0A0P1IW06); details: odor dilutions 10^-7 to 10^-2 v/v on filter paper, 500 ms pulse
# T2 construct: gene OR-8; full-length CDS from antennal RNA, UAS transgene (pUASTattB) in D. melanogaster ab3A empty neuron (delta-halo; DmelOr22a-Gal4); partner is endogenous fly Orco; with Odorant receptor coreceptor (Drosophila melanogaster, endogenous to the ab3A neuron)
# T2 sequence (A0A0P1IW06 1-407): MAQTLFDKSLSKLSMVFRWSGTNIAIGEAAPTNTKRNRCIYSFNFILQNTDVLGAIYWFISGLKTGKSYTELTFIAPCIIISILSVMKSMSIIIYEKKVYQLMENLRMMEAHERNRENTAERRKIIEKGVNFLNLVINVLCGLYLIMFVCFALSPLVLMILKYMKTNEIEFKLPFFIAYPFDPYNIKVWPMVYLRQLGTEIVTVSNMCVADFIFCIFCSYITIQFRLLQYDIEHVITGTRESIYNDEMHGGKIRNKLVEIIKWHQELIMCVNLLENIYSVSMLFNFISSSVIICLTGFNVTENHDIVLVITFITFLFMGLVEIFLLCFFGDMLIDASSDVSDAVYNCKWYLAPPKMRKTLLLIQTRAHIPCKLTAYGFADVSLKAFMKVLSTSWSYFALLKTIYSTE
# T2 sequence (Q9VNB5 1-486 partner): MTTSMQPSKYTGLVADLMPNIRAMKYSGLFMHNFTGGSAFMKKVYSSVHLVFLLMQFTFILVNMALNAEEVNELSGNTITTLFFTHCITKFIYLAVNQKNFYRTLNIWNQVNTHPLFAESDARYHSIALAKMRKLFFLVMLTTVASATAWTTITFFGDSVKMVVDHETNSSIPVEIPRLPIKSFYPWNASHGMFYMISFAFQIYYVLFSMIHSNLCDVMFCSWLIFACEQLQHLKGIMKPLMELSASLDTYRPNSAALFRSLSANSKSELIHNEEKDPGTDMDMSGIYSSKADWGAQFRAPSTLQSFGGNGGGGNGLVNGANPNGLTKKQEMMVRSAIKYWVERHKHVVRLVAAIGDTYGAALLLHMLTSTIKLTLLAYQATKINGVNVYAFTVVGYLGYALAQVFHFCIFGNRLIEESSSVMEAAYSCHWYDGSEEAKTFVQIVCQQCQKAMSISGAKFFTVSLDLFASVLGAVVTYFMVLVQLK
# MsexOR36 = target: T3, MsexOR36 (Manduca sexta, UniProt A0A0P1IVT0); details: odor dilution 10^-2 v/v on filter paper, 500 ms pulse
# T3 construct: gene OR-36; full-length CDS (407 aa) from antennal RNA, UAS transgene (pUASTattB) in D. melanogaster ab3A empty neuron (delta-halo; DmelOr22a-Gal4); partner is endogenous fly Orco; with Odorant receptor coreceptor (Drosophila melanogaster, endogenous to the ab3A neuron)
# T3 sequence (A0A0P1IVT0 1-407): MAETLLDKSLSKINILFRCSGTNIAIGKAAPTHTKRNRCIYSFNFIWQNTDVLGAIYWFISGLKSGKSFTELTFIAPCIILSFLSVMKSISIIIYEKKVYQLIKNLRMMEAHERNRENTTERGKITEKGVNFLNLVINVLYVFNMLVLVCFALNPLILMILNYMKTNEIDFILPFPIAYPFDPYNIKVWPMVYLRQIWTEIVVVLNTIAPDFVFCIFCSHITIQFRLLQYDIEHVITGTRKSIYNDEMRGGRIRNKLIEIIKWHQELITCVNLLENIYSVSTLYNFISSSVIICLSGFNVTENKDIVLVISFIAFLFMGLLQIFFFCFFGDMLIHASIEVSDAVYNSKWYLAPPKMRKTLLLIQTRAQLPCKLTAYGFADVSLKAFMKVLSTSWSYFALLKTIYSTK
# T3 sequence (Q9VNB5 1-486 partner): T2 sequence (Q9VNB5 1-486 partner)
smiles,measurement,setting,value
CCCCCCCCC=O [nonanal],"single sensillum recording, Drosophila empty neuron (ab3A)",MsexOR33,each responding to only one odorant: MsexOR33 (nonanal) and MsexOR8 (propyl valerate)
CCCCC(=O)OCCC [propyl valerate],"single sensillum recording, Drosophila empty neuron (ab3A)",MsexOR8,each responding to only one odorant: MsexOR33 (nonanal) and MsexOR8 (propyl valerate)
C=CC(C)=CCC=C(C)C [β-ocimene],"single sensillum recording, Drosophila empty neuron (ab3A)",MsexOR36,"β-ocimene, which was detected only by MsexOR36"
